Where two headings read alike, the source gives them in different places.
How the values were obtained:
Type in all cases: cell-based
[1] = test system: Caski (HPV16+) cells; assay: Cell proliferation/viability assay, Caski cells; details: Homo sapiens, Ca-Ski, 96 h, 4 days
Method: (§1) Caski (catalog number CRL-1550), SiHa (catalog number HTB-35), C33A (catalog number HTB-31), Saos-2 (ATCC HTB-85), and Hela (catalog number CCL-2) cells were obtained from the American Type Culture Collection (ATCC). The human cervical carcinoma cell lines Caski. SiHa, Hela and C33A, and the human osteosarcoma cell line Saos-2, and the human keratinocyte cell line HaCaT were cultured in Dulbecco's Modified Eagle Medium (DMEM, Invitrogen catalog number 11965-092) supplemented with 10% fetal bovine serum. The colorectal carcinoma cell line HCT-116 was cultured in Roswell Park Memorial Institute-1640 Medium (Invitrogen catalog number 11875-093) supplemented with 10% FBS. All cells were incubated at 37° C. in a humidified atmosphere with 5% CO2 in air. To establish the SCHPV-18 cell line, one million primary neonatal human foreskin keratinocytes (Invitrogen, catalog no. C-001-5C), cultured in KBM Gold-keratinocvte cell basal medium (Lonza, catalog no. 192060), were electroporated with 5 μg HPV-18 plasmid DNA (ATCC catalog no. 45152D) using the Amaxa Nucleofector II on setting T-007. Cells were co-transfected with 2 μg plasmid pZSGreen1-N1 (Clontech catalog no. 632448) encoding G418 resistance, and cells were selected for four days in 100 μg/ml G418, after which selection was removed. Cells were maintained in culture six months prior to compound testing. Integration of the HPV 18 genome was confirmed by Southern blot. Control cells transfected in parallel with pZSGreen1-N1 alone became senescent four days after selection and the culture could not be expanded. SCHPV-18 cells were maintained in E medium (Fehrmann F, Laimins L A. Human papillomavirus type 31 life cycle: methods for study using tissue culture models. Methods Mol Biol 2005; 292:317-330).
(§2) For proliferation assays, cells were plated in white polystyrene 96-well plates (Costar catalog number 3917) for CellTiter Glo viability assays or 96-well special optics plates (Costar cat #3614) for CellTiter Blue viability assays. Cells were plated in the appropriate growth medium without antibiotics. Two hours after cell plating, a 200× compound stock diluted in DMSO was added to a final concentration of 0.5%. Plates were incubated at 37° C., for 4 days and then cell viability was assessed using either CellTiter Blue (Promega catalog number G8081) or CellTiter Glo (Promega catalog number G7572) according to the manufacturer's instructions. For the CellTiter Blue viability assay, data was collected using the SpectraMax Gemini EM (Molecular Devices) with an excitation wavelength of 530 nm and emission wavelength of 590 nm. For the CellTiter Glo viability assay, data was collected using the Envision Mulitlabel Reader (Perkin Elmer catalog number 2104-0010). To calculate IC50 and EC50 values, percent inhibition curves were fit using a four-parameter logistic formula [y=A+[…]], where A and B denote minimal and maximal % inhibition, respectively, C is the IC50 value, D is the Hill slope, and x represents compound concentration.
(§3) Table C, below, sets out the results obtained employing various compounds of the invention tested for their effects on proliferation of such cells. Caski or SiHa cells, transformed by HPV 16, Hela cells, transformed by HPV 18, or HPV-negative control cell lines (Saos-2 or C33a) were treated with various compounds. […] Unlike the HPV-negative Saos-2 or C33a cell lines, the HPV-transformed cell lines rely on the presence of HPV for their continued proliferation. Therefore, a comparison of IC50 values from HPV-transformed cell lines with IC50 values obtained from HPV-negative cell lines can be used to test for compound selectivity.

[2] = test system: C33A (HPV−) cells; assay: Cell proliferation/viability assay, C33A cells; details: Homo sapiens, C-33-A, 96 h
Method: as §1, §2, §3

[3] = test system: SiHa (HPV16+) cells; assay: Cell proliferation/viability assay, SiHa cells; details: Homo sapiens, 96 h, 4 days
Method: as §1, §2, §3

[4] = test system: Saos-2 (HPV−) cells; assay: Cell proliferation/viability assay, Saos-2 cells; details: Homo sapiens
Method: as §1, §2, §3

[5] = test system: HeLa (HPV18+) cells; assay: Cell proliferation/viability assay, HeLa cells; details: Homo sapiens, 96 h, 4 days
Method: as §1, §2, §3

[6] = molecular target: T1, PAR4 (Homo sapiens, UniProt Q96RI0); assay: PAR4 FLIPR assay (calcium mobilization, antagonist activity) in PAR4-expressing HEK293 cells
T1 construct: expressed in transfected cells; host or cells: HEK293 PAR4 Clone 1.2A
T1 sequence (Q96RI0 18-385): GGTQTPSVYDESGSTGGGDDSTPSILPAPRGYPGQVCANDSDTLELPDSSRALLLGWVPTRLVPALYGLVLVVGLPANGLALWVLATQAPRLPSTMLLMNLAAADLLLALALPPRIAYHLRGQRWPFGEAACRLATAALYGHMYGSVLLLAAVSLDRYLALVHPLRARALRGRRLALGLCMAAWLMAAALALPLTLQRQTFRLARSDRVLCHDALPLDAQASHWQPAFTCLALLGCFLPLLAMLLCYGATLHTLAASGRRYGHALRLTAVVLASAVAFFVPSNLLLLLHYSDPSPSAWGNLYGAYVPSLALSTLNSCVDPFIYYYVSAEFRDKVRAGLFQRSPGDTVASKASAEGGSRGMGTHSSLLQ
Source text: The FLIPR assay is an exemplary in vitro assay for measuring the activity of the PAR4 antagonists of the present invention. In this assay, intracellular calcium mobilization is induced in PAR4 expressing cells by a PAR4 agonist and calcium mobilization is monitored.
HEK293 cells stably expressing PAR4 were generated by a standard method of transfection of human PAR4 (F2R23) cDNA expression vector and selected based on PAR4 protein expression or mRNA expression. […] These cells also express endogenous PAR1 and can elicit calcium signal upon stimulation with PAR1 agonist peptide. Therefore, the same cells were also used to determine selectivity against PAR1 and agonist activity for both receptors. Cells from HEK293 PAR4 Clone 1.2A (BMS Arctic ID 383940) were propagated and used for calcium mobilization studies.
FLIPR-based calcium mobilization assay in HEK293 cells was used to measure PAR4 antagonism, agonism, and selectivity against PAR1. The activity of the PAR4 antagonists of the present invention were tested in PAR4 expressing cells by monitoring H-Ala-Phe(4-F)-[…]NH2-induced intracellular calcium mobilization. Counter screens for agonist activity and PAR1 antagonist activity were also performed. Briefly, PAR1/PAR4-expressing HEK293 cells were grown in DMEM (Life Technology, Grand Island, N.Y.) containing 10% heat-inactivated FBS, 1% Penicillin-Streptomycin, 10 μg/mL blasticidin, and 100 μg/mL Zeocin at 37° C. with 5% CO2. Cells were plated overnight prior to the experiment in a black 384-well Purecoat Amine clear bottom plate (Becton Dickinson Biosciences, San Jose, Calif.) at 10,000 cells/well in 30 μL growth medium and incubated in a humidified chamber at 37° C. with 5% CO2 overnight. Prior to compound addition, the cell medium was replaced with 40 μL of IX calcium and magnesium-containing Hank's Balanced Saline Solution (HBSS) (with 20 mM HEPES) and 1:1000 diluted fluorescent calcium indicator (Codex Biosolutions, Gaithersburg, Md.). After a 30 minute incubation period at 37° C., and a further 30 minute incubation and equilibration period at room temperature, 20 μL test compound (diluted in 1×HBSS buffer) was added at various concentrations at 0.17% dimethyl sulfoxide (DMSO) final concentration. Changes in fluorescence intensity were measured using a Functional Drug Screening System (FDSS, Hamamatsu, Japan) to determine agonist activities. The cells were then incubated for 30 minutes at room temperature followed by addition of 20 μL of agonist peptide for antagonist activity measurement. […] Compound potency was derived from 11-point concentration-response curves.

[7] = read-out: C33A (HPV−) Proliferation IC50 (μM)
[8] = SAOS-2, 96 h, read-out: Saos-2 (HPV−) Proliferation IC50 (μM)
[9] = C33A, HPV-negative, 4 days, read-out: C33A (HPV−) Proliferation IC50
[10] = 96 h, Saos-2, HPV-negative, 4 days, read-out: Saos-2 (HPV−) Proliferation IC50

## COc1ccc(-c2cc(C#N)cc3nc(OC(F)F)cnc23)cc1 [Example 1, 3-(difluoromethoxy)-8-(4-methoxyphenyl)quinoxaline-6-carbonitrile]
[1]
  IC50: 2.3 µM
[2]; [7]
  IC50: 6.9 µM
[3]
  IC50: 1.7 µM
[4]; [8]
  IC50: 7.7 µM
[5]
  IC50: 1.5 µM
[6]
  IC50: 1.9 µM

## COc1ccc(-c2cc(Cl)cc3nc(OC(F)F)cnc23)cc1 [Example 2, 7-Chloro-2-(difluoromethoxy)-5-(4-methoxyphenyl)quinoxaline]
[1]
  IC50: 10 µM
[2]; [7]
  IC50: 54 µM
[3]
  IC50: 8 µM
[4]; [8]
  IC50: > 100 µM
[5]
  IC50: 9.3 µM
[6]
  IC50: 2.1 µM

## C=Cc1cc(-c2ccc(OC)cc2)c2ncc(OC(F)F)nc2c1 [Example 3, 2-(difluoromethoxy)-5-(4-methoxyphenyl)-7-vinylquinoxaline]
[1]
  IC50: 61.9 µM
[2]; [7]
  IC50: > 100 µM
[4]; [8]
  IC50: > 100 µM
[6]
  IC50: 0.69 µM

## COC(=O)c1cc(-c2ccc(OC)cc2)c2ncc(OC(F)F)nc2c1 [Example 4, Methyl 3-(difluoromethoxy)-8-(4-methoxyphenyl)quinoxaline-6-carboxylate]
[1]
  IC50: 12.6 µM
[2]; [7]
  IC50: 53.4 µM
[4]; [8]
  IC50: > 100 µM
[6]
  IC50: 1 µM

## COc1ccc(-c2cc3ncc(OC(F)F)nc3cc2C(F)(F)F)cc1 [Example 7, 2-(difluoromethoxy)-6-(4-methoxyphenyl)-7-(trifluoromethyl)quinoxaline]
[1]
  IC50: 5 µM
[2]; [9]
  IC50: > 100 µM
[3]
  IC50: 4.3 µM
[4]; [10]
  IC50: 92.1 µM
[5]
  IC50: 4.4 µM

## COc1ccc(-c2cc(C(F)(F)F)cc3nc(OC(F)F)cnc23)cc1C(F)(F)F [Example 9, 2-(difluoromethoxy)-5-(4-methoxy-3-(trifluoromethyl)phenyl)-7-(trifluoromethyl)quinoxaline]
[1]
  IC50: 3.3 µM
[2]; [9]
  IC50: 78.7 µM
[3]
  IC50: 1.7 µM
[4]; [10]
  IC50: 76.2 µM
[5]
  IC50: 1.5 µM

## COc1cccc(-c2cc(C(F)(F)F)cc3nc(OC(F)F)cnc23)c1 [Example 10, 2-(difluoromethoxy)-5-(3-methoxyphenyl)-7-(trifluoromethyl)quinoxaline]
[1]
  IC50: 3.9 µM
[2]; [9]
  IC50: > 99.5 µM
[3]
  IC50: 5.1 µM
[4]; [10]
  IC50: 55 µM
[5]
  IC50: 4.4 µM

## COc1ccc2cc(-c3cc(C(F)(F)F)cc4nc(OC(F)F)cnc34)ccc2c1 [Example 11, 2-(difluoromethoxy)-5-(6-methoxynaphthalen-2-yl)-7-(trifluoromethyl)quinoxaline]
[1]
  IC50: 2.9 µM
[2]; [9]
  IC50: > 99.5 µM
[3]
  IC50: 2.7 µM
[4]; [10]
  IC50: 45.9 µM
[5]
  IC50: 2.1 µM

## COc1ccc(-c2cc(C(F)(F)F)cc3nc(OC(F)F)cnc23)cc1F [Example 12]
[1]
  IC50: 3.2 µM
[2]; [9]
  IC50: > 99.5 µM
[3]
  IC50: 1.3 µM
[4]; [10]
  IC50: 14.3 µM
[5]
  IC50: 1.1 µM

## COc1cc(-c2cc(C(F)(F)F)cc3nc(OC(F)F)cnc23)cc(C(F)(F)F)c1 [Example 13, 2-(difluoromethoxy)-5-(3-methoxy-5-(trifluoromethyl)phenyl)-7-(trifluoromethyl)quinoxaline]
[1]
  IC50: 15.6 µM
[2]; [9]
  IC50: 40.5 µM
[3]
  IC50: 24 µM
[4]; [10]
  IC50: 40.3 µM
[5]
  IC50: 37 µM

## COc1ccc(-c2cc(C(F)(F)F)cc3ncc(OC(F)F)nc23)cc1 [Example 14, 2-(difluoromethoxy)-8-(4-methoxyphenyl)-6-(trifluoromethyl)quinoxaline]
[1]
  IC50: 2.8 µM
[2]; [9]
  IC50: 49.9 µM
[3]
  IC50: 2.9 µM
[4]; [10]
  IC50: 57.7 µM
[5]
  IC50: 2.6 µM

## COc1ccc(-c2cc(C)cc3nc(OC(F)F)cnc23)cc1C(F)(F)F [Example 16, 2-(difluoromethoxy)-5-(4-methoxy-3-(trifluoromethyl)phenyl)-7-methylquinoxaline]
[1]
  IC50: 7 µM
[2]; [9]
  IC50: > 99.5 µM
[3]
  IC50: 9.4 µM
[4]; [10]
  IC50: > 99.5 µM
[5]
  IC50: 9.1 µM

## Cc1cc(-c2ccc(F)c(C(F)(F)F)c2)c2ncc(OC(F)F)nc2c1 [Example 17, 2-(difluoromethoxy)-5-(4-fluor-3-(trifluoromethyl)phenyl)-7-methylquinoxaline]
[1]
  IC50: 17.9 µM
[2]; [9]
  IC50: 58.3 µM
[3]
  IC50: 17.8 µM
[4]; [10]
  IC50: 96.5 µM
[5]
  IC50: 23.7 µM

## Cc1cc(-c2cccc(C(F)(F)F)c2)c2ncc(OC(F)F)nc2c1 [Example 25, 2-(difluoromethoxy)-7-methyl-5-(3-(trifluoromethyl)phenyl)quinoxaline]
[1]
  IC50: 14.5 µM
[2]; [9]
  IC50: > 100 µM
[3]
  IC50: 11.7 µM
[4]; [10]
  IC50: > 100 µM
[5]
  IC50: 15.2 µM

## COc1ccc(-c2cc(Br)cc3nc(OC(F)F)cnc23)cc1 [Example 27, 7-bromo-2-(difluoromethoxy)-5-(4-methoxyphenyl)quinoxaline]
[6]
  IC50: 2.6 µM

From patent publication US10517870B2, “Aryl substituted bicycle heteroaryl compounds” (Bristol-Myers Squibb Company, priority 2015, dated 2019)
